Tested on: NCI-H295R
Test: IC50 (antiproliferative, ATP content)
Details: 48 h
Method in brief: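 Adrenocortical carcinoma cells were plated at 1500 per well in 1536-well plates in serum-free DMEM with ITS supplement, left overnight, then given library compounds by pin transfer at 8 final concentrations spanning 0.6 nM to 46 µM and held 48 h at 37 °C, 5% CO2. ATP was measured as CellTiter-Glo luminescence after 20 min at room temperature and scaled between vehicle and positive-control wells. A four-parameter logistic model was fitted to each series. The IC50 was taken from these fits, and compounds without a concentration response were recorded as above the top dose.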

Compound | IC50 [µM]
NS(=O)(=O)c1cc(C(=O)O)c(NCc2ccco2)cc1Cl | > 46
ClC(Cl)(Cl)Cl | > 46
C=CCN=C=S | > 46
O=[C@@](C)[C@@H]3[C@]2(C)[C@](CC3)([H])[C@@]1([H])[C@@](CC2)([H])[C@](CC[C@](O)(C)C4)(C)[C@@]4([H])CC1 | > 46
CC12CCC(C1)C(C)(C)C2=O (stereo not drawn) | > 46
CC(=O)O[C@H]1CC[C@H]2[C@@H]3CCC4=CC(=O)CCC4=C3C=C[C@]12C | > 46
O=C(O)[C@H]1CN(C/C=C/P(=O)(O)O)CCN1 | > 46
O=C3N1/C(=C(\CS[C@@H]1[C@@H]3NC(=O)Cn2cnnn2)CSc4nnc(C)s4)C(O)=O | > 46
CC(C)(C)c1ccc(O)cc1 | > 46
Cc1nc2ccccn2c(=O)c1CCN1CCC(C(=O)c2ccc(F)cc2)CC1 | > 46
C=CC1=C(C(=O)O)N2C(=O)[C@@H](NC(=O)C(=NO)c3csc(N)n3)[C@H]2SC1 | > 46
CCN1CCC[C@H]1CNC(=O)c1c(O)c(Cl)cc(Cl)c1OC | > 46
Cl.NNc1nncc2ccccc12 | > 46
CC(C)(C)NCC(O)COc1cccc2c1C[C@H](O)[C@H](O)C2 (stereo partly drawn) | > 46
CC(=O)CC(c1ccc([N+](=O)[O-])cc1)c1c(O)c2ccccc2oc1=O (stereo not drawn) | > 46
O=C([O-])CCC/C=C\C[C@@H]1[C@@H](/C=C/[C@@H](O)COc2cccc(Cl)c2)[C@H](O)C[C@@H]1O.[Na+] | > 46
N#CC1(N2CCCCC2)CCCCC1 | > 46
CCOc1ccc(NC(=S)Nc2ccc(OCC)cc2)cc1 | > 46
CC(C)=O | > 46
CNc1c2c(nn1C)CCCC2 | > 46
O=C1[C@@]([C@](CC5)(C)[C@]4([H])C([C@H]5O[C@@H]3[C@H](O[C@H]7[C@H](O)[C@@H](O)[C@H](O)[C@@H]([C@](O)=O)O7)[C@@H](O)[C@H](O)[C@@H]([C@@](O)=O)O3)(C)C)([H])[C@](CC4)(C)[C@@]2(C)C([C@]([C@@]6(C)CC2)([H])C[C@@](CC6)(C)[C@@](O)=O)=C1 | > 46
CCCCCCCCCC(CC)c1ccc(S(=O)(=O)[O-])cc1.[Na+] (stereo not drawn) | > 46
CC(=O)OCC(=O)C1CCC2C3CCC4CC(O)CCC4(C)C3C(=O)CC12C (stereo not drawn) | > 46

Compound | IC50 [µM]
NC(=O)N[C@@H](CCC(=O)O)C(=O)O | > 46
CCN(C(C)=O)c1cccc(-c2ccnc3c(C#N)cnn23)c1 | > 46
NCC1(CC(=O)O)CCCCC1 | > 46
CC(C)(CO)C(O)C(=O)NCCC(=O)NCCSSCCNC(=O)CCNC(=O)C(O)C(C)(C)CO (stereo not drawn) | > 46
CNC(=O)NC(O)C(Cl)(Cl)Cl (stereo not drawn) | > 46
COP(=O)(OC)OC(c1ccc(Cl)cc1)P(=O)(OC)OC (stereo not drawn) | > 46
COc1ccc(C(=O)NCc2ccc(OCCN(C)C)cc2)cc1OC.Cl | > 46
C[C@H](N)[C@H](O)c1ccc(O)c(O)c1 | > 46
CCCCCCCCCCCCCC(=O)OC(C)C | > 46
Nc1ccn([C@@H]2O[C@H](CO)[C@@H](O)[C@@H]2O)c(=O)n1 | > 46
C[N+](C)(C)CC(O)CC(=O)[O-].Cl (stereo not drawn) | > 46
CCC(=O)O[C@H]1CC[C@H]2[C@@H]3CCC4=CC(=O)CC[C@]4(C)[C@H]3CC[C@]12C | > 46
CC(=O)O[C@H]1C[C@@H]2CC[C@@H]3[C@H](CC[C@@]4(C)[C@H]3C[C@H]([N+]3(C)CCCCC3)[C@@H]4OC(C)=O)[C@@]2(C)C[C@@H]1[N+]1(C)CCCCC1.[Br-].[Br-] | > 46
NC(=O)OC[C@@H]1[C@H](NC(=O)/C(=N\OCC(=O)[O-])c2csc(N)n2)C(=O)N1S(=O)(=O)[O-].[Na+].[Na+] | > 46
Cc1ccc(S(=O)(=O)NC(=O)NN2CC3CCCC3C2)cc1 (stereo not drawn) | > 46
O=C(O)C[CH2][Ge](=[O])[O][Ge](=[O])[CH2]CC(=O)O | > 46
Cc1c(C(N)=O)cc([N+](=O)[O-])cc1[N+](=O)[O-] | > 46
Cc1ccc(C(C)C)cc2c(C)ccc1-2 | > 46
Nc1ncn([C@H]2C[C@H](O)[C@@H](CO)O2)c(=O)n1 | > 46
CCOC(=O)O[C@]1(C(=O)COC(=O)CC)CC[C@H]2[C@@H]3CCC4=CC(=O)C=C[C@]4(C)[C@H]3[C@@H](O)C[C@@]21C | > 46
N=C1NCCC(C2NC(=O)/C(=C/NC(N)=O)NC(=O)C(CNC(=O)CC(N)CCCN)NC(=O)C(CO)NC(=O)C(N)CNC2=O)N1.O=S(=O)(O)O (stereo not drawn) | > 46
O=C1c2ccccc2-c2n[nH]c3cccc1c23 | > 46
NC(Cc1ccccc1)C(=O)O (stereo not drawn) | > 46

Compound | IC50 [µM]
CC(C)(Oc1ccc(Cl)cc1)C(=O)O | > 46
COC(=O)c1cncn1C(C)c1ccccc1.Cl (stereo not drawn) | > 46
[S]=[Sb](=[S])[S][Sb](=[S])=[S] | > 46
CCCC(=O)OC(C(Cl)(Cl)Cl)P(=O)(OC)OC (stereo not drawn) | > 46
CO[C@H]1C[C@H](O[C@H]2[C@H](C)[C@@H](O[C@@H]3O[C@H](C)C[C@H](N(C)C)[C@H]3O)[C@@H](C)C[C@]3(CO3)C(=O)[C@H](C)[C@@H](O)[C@@H](C)[C@@H](C)OC(=O)[C@@H]2C)O[C@@H](C)[C@@H]1O.O=P(O)(O)O | > 46
O=c1[nH]c(=O)n([C@H]2C[C@H](O)[C@@H](CO)O2)cc1C(F)(F)F | > 46
COc1ccc2c3c1O[C@H]1[C@@H](O)C=C[C@H]4[C@@H](C2)NCC[C@@]341 | > 46
Cl.C/C(C)=N\Nc2c(cnc1c2cnn1CC)C(=O)OCC | > 46
Cl.F/C(COc1ccc2c(c1)[nH]c1ccccc12)=C1\CN2CCC1CC2 | > 46
Nc1nc(O)c(-c2ccccc2)o1 | > 46
O=C1O[C@@H]3CCN2C\C=C(\COC(=O)[C@](C)(O)[C@](C)(O)[C@H]1C)[C@@H]23 | > 46
N#CC2=CC=C1[C@@](OCC1=C2)([C@]3=CC=C(C=C3)F)CCCN(C)C.OC(C(O)=O)=O | > 46
Nc1ccc(S(=O)(=O)Nc2nccs2)cc1 | > 46
COP(=O)(OC)C(O)C(Cl)(Cl)Cl (stereo not drawn) | > 46
CCCCOC(=O)c1ccc(O)cc1 | > 46
C=CCc1ccc(O)c(OC)c1 | > 46
F[C@]2([C@](C)3CC4)[C@@H](O)C[C@]([C@](C5)([H])[C@@]([H])2CCC3=CC4=O)(C)[C@@]1([C@](CCl)=O)[C@@H]5OC(C)(C)O1 | > 46
O=C(NCN1CCOCC1)c1cnccn1 | > 46
OC(CCN1CCCCC1)(c1ccccc1)c1ccccc1 | > 46
CNCCCC12CCC(c3ccccc31)c1ccccc12 | > 46
CCc1ccc(S(=O)(=O)O)cc1 | > 46

Further lines, results first:

IC50 [µM] | Compound
> 46 | O=C1OC2(c3ccc([O-])cc3Oc3cc([O-])ccc32)c2ccccc21.[Na+].[Na+]
> 46 | COc1c2occc2cc2ccc(=O)oc12
> 46 | Cc1ncc(CSSCc2cnc(C)c(O)c2CO)c(CO)c1O.Cl.Cl
> 46 | Cl.O=C(c1ccc(F)cc1)C1CCN(CCn2c(=S)[nH]c3ccccc3c2=O)CC1
> 46 | O=C(C)O[C@@H]([C@H]4[N@@+]6(CCCCC6)C)[C@](CC5)(C)[C@](C4)([H])[C@@]3([H])[C@@]5([H])[C@@]2(C)C[C@@H]([C@@H](OC(C)=O)C[C@@]([H])2CC3)N1CCCCC1.[Br-]
> 46 | Cl.N=C(N)n1cccn1
> 46 | Clc1ccc2nsnc2c1NC1=NCCN1
> 46 | [O-][n+]1cccc(CO)c1
> 46 | O=C(O)c1cccnc1
> 46 | Cc1ccccc1CNc1ncnc2c1ncn2[C@@H]1O[C@H](CO)[C@@H](O)[C@H]1O
> 46 | Nc1nc(F)nc2c1ncn2[C@H]1O[C@@H](CO)[C@H](O)[C@H]1O
> 46 | COc1ccc(-c2cc(=O)c3c(O)cc(O[C@@H]4O[C@H](CO[C@@H]5O[C@@H](C)[C@H](O)[C@@H](O)[C@H]5O)[C@@H](O)[C@H](O)[C@H]4O)cc3o2)cc1O
> 46 | Cc1cc(NS(=O)(=O)c2ccc(N)cc2)no1
> 46 | O=C(O)CN1C(=O)c2cccc3cccc(c23)C1=O
> 46 | O=C(O)c1cccnc1Nc1cccc(C(F)(F)F)c1
> 46 | CC(C)(C(=O)c1cccnc1)c1cccnc1

IC50 [µM] | Compound
> 46 | CC(C)(C)c1ccc2c(S(=O)(=O)[O-])c(C(C)(C)C)ccc2c1.[Na+]
> 46 | CCN[C@H]1C[C@H](C)S(=O)(=O)c2sc(S(N)(=O)=O)cc21.Cl
> 46 | NCCNCCNCCN
> 46 | Nc1c2c(nc3ccccc13)CCCC2
> 46 | CCNC(=O)/C=C/c1cccc(Br)c1
> 46 | O=C(CSC#N)O[C@H]2[C@]1(C)CC[C@H](C2)[C@](C)1C
> 46 | [C@@H]1(O[C@H](CS1)N\2C(\N=C(/C=C/2)N)=O)CO
> 46 | CC1(C)S[C@@H]2[C@H](NC(=O)[C@@H](NC(=O)N3CCNC3=O)c3ccccc3)C(=O)N2[C@H]1C(=O)[O-].[Na+]
> 46 | CCCc1cc(=O)[nH]c(=S)[nH]1
> 46 | Oc1ccc(C2CNCCc3c2cc(O)c(O)c3Cl)cc1 (stereo not drawn)
> 46 | Cc1onc(-c2ccccc2)c1-c1ccc(S(N)(=O)=O)cc1
> 46 | CO[C@H]1O[C@@H]2O[C@@]3(C)CC[C@H]4[C@H](C)CC[C@@H]([C@H]1C)[C@@]24OO3
> 46 | CCCCCCCCCCCC(=O)OCC(O)CO (stereo not drawn)
> 46 | CC[C@@H](C)[C@H](N)C(=O)O
> 46 | C[C@@H]1[C@H](O)[C@@H](C)/C=C/C=C/C=C/C=C/C=C/C=C/C=C/[C@H](O[C@@H]2O[C@H](C)[C@@H](O)[C@H](N)[C@@H]2O)C[C@@H]2O[C@](O)(C[C@@H](O)C[C@@H](O)[C@H](O)CC[C@@H](O)C[C@@H](O)CC(=O)O[C@H]1C)C[C@H](O)[C@H]2C(=O)O

From the supplement of paper PMC3493320
